Reference: ChEMBL document CHEMBL5506035, “Discovery of Glutamate Carboxypeptidase III Ligands to Compete the Uptake of [177Lu]Lu-PSMA-617 in Healthy Organs” (J Med Chem, 2024)
The source made the active and inactive calls. The calls are words filed in the database; no cut-off is given here.

Tests used:
[1] = biological target: T1, Glutamate carboxypeptidase 2 (Homo sapiens, UniProt Q04609); experiment: Binding affinity to human recombinant PSMA assessed as dissociation constant by fluorescence polarization assay
Target sequence in this assay (Q04609 whole entry): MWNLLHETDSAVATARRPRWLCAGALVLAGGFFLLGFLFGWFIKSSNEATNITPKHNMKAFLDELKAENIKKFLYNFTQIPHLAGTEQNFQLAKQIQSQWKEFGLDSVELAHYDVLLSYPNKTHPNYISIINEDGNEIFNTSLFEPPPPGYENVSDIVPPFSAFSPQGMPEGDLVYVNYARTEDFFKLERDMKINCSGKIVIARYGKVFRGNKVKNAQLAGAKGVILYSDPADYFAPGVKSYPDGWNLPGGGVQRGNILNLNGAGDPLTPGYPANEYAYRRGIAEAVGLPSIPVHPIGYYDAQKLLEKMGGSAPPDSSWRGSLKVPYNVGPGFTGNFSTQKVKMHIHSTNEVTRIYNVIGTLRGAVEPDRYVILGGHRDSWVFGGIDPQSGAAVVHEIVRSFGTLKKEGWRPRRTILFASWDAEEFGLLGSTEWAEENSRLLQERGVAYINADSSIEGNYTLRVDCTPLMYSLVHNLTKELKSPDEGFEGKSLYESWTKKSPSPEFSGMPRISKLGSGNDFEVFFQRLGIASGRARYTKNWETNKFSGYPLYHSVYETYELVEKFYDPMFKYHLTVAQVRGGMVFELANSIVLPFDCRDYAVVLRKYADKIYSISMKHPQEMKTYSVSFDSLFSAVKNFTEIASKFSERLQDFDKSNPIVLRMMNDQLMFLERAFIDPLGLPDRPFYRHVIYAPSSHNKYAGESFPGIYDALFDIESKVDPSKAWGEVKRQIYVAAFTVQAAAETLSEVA

Homo sapiens = species on record: Homo sapiens; experiment: Ratio of Kd for binding affinity to human recombinant GCPIII assessed as dissociation constant by fluorescence polarization assay to Kd for binding affinity to human recombinant PSMA assessed as dissociation constant by fluorescence polarization assay
Interleukin-15 = Interleukin-15 (Homo sapiens, UniProt P40933); experiment: Binding affinity to IL-15 (unknown origin) assessed as dissociation constant by fluorescence polarization assay
Chain of Interleukin-15 (P40933 whole entry): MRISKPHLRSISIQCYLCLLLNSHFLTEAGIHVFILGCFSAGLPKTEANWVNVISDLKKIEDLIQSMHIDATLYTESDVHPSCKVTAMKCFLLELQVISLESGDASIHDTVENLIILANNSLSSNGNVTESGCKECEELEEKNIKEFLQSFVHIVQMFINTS

[2] = Binding affinity to IL-9 receptor (unknown origin) assessed as dissociation constant by fluorescence polarization assay; set-up: species or system Homo sapiens
Prolyl endopeptidase FAP [3] = biological target: T2, Prolyl endopeptidase FAP (Mus musculus, UniProt P97321); experiment: Binding affinity to mouse FAP assessed as dissociation constant by fluorescence polarization assay
T2 sequence (P97321 whole entry): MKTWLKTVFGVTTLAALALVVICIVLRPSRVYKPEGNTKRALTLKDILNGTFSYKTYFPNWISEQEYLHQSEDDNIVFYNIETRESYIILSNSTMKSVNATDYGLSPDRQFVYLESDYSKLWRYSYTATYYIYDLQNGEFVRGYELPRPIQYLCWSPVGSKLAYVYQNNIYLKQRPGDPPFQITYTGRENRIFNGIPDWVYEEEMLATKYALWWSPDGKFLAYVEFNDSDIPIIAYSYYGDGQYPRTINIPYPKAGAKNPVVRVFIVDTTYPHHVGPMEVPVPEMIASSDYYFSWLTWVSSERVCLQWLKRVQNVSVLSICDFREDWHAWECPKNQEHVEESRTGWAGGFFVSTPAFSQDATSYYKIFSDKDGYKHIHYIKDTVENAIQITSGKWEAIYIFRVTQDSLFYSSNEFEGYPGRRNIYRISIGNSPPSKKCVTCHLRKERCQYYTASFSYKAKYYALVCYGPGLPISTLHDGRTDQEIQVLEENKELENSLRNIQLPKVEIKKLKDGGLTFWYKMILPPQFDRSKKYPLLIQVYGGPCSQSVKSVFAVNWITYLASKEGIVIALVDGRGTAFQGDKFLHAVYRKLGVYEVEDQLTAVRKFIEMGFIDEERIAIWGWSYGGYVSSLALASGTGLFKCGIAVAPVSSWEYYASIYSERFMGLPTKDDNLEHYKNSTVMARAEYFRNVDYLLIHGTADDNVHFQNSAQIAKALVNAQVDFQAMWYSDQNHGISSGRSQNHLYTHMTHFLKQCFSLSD

Albumin [4] = biological target: Albumin (Homo sapiens, UniProt P02768); experiment: Binding affinity to human serum albumin by fluorescence polarization assay
Chain of Albumin (Homo sapiens, UniProt P02768) (P02768 whole entry): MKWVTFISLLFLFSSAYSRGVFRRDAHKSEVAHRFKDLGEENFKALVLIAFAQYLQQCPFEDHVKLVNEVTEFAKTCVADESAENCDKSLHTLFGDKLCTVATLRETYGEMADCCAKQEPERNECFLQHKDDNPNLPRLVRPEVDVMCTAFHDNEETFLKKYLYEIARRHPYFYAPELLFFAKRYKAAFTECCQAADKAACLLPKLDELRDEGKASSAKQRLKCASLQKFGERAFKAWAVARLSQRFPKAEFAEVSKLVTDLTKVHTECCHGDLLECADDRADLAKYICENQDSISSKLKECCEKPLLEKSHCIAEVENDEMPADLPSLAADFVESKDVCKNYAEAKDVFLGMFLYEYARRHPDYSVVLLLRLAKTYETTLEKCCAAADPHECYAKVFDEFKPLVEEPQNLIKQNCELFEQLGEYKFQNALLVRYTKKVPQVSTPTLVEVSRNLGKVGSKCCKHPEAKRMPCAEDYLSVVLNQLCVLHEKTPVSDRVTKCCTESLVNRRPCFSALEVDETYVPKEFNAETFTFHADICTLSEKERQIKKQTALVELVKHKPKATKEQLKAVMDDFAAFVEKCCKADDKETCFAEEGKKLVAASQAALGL

[5] = biological target: Natural cytotoxicity triggering receptor 1 (Homo sapiens, UniProt O76036); experiment: Binding affinity to NKp46 (unknown origin) assessed as dissociation constant by fluorescence polarization assay
Chain of Natural cytotoxicity triggering receptor 1 (O76036 whole entry): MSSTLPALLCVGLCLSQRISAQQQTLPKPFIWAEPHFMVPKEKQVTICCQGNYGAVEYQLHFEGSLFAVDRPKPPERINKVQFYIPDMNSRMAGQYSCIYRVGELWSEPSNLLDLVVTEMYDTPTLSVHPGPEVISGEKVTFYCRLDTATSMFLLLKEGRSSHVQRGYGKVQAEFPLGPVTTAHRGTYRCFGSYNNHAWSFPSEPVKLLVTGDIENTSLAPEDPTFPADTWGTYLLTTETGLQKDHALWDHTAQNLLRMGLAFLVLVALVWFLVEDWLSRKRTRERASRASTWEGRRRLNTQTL

[6] = biological target: Urokinase-type plasminogen activator (Homo sapiens, UniProt P00749); experiment: Binding affinity to Urokinase (unknown origin) assessed as dissociation constant by fluorescence polarization assay
Albumin [7] = biological target: Albumin (Bos taurus, UniProt P02769); experiment: Binding affinity to bovine serum albumin by fluorescence polarization assay
Chain of Albumin (Bos taurus, UniProt P02769) (P02769 whole entry): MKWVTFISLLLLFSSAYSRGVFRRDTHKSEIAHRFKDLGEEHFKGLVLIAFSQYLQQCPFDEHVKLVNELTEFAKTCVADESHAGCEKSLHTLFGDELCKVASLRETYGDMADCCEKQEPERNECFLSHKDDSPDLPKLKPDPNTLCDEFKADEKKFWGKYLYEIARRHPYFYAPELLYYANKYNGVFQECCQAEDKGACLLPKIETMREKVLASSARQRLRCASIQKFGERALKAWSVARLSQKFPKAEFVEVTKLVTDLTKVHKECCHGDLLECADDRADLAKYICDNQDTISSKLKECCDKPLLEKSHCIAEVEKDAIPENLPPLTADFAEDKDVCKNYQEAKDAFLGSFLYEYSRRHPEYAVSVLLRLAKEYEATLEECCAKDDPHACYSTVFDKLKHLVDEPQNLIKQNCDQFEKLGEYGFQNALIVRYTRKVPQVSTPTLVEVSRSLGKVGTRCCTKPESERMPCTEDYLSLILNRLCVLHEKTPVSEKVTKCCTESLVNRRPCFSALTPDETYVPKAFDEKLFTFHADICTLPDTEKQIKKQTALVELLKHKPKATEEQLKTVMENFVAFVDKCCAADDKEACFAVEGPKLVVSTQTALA

[8] = biological target: T1, Glutamate carboxypeptidase 2; experiment: Displacement of [177Lu]LU-PSMA-617 from PSMA in human salivary gland assessed as residual activity at 10 uM incubated for 1 hr by autoradiography analysis relative to control; assay type: tissue-based
Target sequence in this assay (Q04609 whole entry, looked up): as the sequence (Q04609 whole entry) above

[9] = biological target: Immunoglobulin heavy constant gamma 4 (Homo sapiens) (UniProt P01861); experiment: Binding affinity to IgG4 (unknown origin) by fluorescence polarization assay
[10] = biological target: Stromelysin-1 (Homo sapiens) (UniProt P08254); experiment: Binding affinity to MMP3 (unknown origin) by fluorescence polarization assay
Chain of Stromelysin-1 (Homo sapiens) (P08254 100-477 limits assumed): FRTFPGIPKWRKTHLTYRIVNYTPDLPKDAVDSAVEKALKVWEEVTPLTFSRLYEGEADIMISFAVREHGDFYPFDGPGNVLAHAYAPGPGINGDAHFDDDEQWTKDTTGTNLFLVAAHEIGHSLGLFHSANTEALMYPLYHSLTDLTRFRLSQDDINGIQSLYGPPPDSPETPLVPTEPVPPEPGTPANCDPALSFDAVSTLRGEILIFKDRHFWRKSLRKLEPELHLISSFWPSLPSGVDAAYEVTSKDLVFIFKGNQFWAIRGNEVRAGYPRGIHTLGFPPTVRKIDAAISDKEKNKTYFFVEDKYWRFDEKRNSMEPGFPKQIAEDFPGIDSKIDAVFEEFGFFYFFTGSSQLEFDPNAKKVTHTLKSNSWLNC

Prolyl endopeptidase FAP [11] = biological target: T3, Prolyl endopeptidase FAP (Homo sapiens, UniProt Q12884); experiment: Binding affinity to human FAP assessed as dissociation constant by fluorescence polarization assay
T3 sequence (Q12884 whole entry): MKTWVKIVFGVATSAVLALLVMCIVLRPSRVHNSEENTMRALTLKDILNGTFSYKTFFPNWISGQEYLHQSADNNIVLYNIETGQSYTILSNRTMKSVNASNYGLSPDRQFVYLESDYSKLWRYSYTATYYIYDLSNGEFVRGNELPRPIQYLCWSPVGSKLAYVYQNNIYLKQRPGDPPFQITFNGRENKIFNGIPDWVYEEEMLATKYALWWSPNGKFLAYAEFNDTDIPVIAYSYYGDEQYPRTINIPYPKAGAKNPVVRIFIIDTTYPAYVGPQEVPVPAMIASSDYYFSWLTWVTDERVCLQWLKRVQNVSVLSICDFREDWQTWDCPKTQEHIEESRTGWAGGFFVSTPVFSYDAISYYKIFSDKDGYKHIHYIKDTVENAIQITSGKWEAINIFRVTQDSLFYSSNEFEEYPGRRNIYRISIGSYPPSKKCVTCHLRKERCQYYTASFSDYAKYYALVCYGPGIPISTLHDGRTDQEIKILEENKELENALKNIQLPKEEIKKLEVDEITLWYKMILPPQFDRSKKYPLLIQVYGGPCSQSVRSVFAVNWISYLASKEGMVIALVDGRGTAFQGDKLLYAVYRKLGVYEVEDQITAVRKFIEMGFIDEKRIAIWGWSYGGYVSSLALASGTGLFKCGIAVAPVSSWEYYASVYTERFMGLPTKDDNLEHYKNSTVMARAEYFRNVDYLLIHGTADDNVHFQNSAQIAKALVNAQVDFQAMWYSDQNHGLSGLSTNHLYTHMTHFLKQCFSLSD

Albumin [12] = biological target: Albumin (Oryctolagus cuniculus, UniProt P49065); experiment: Binding affinity to rabbit serum albumin by fluorescence polarization assay
[13] = biological target: N-acetylated-alpha-linked acidic dipeptidase 2 (Homo sapiens, UniProt Q9Y3Q0); experiment: Binding affinity to human recombinant GCPIII assessed as dissociation constant by fluorescence polarization assay
Chain of N-acetylated-alpha-linked acidic dipeptidase 2 (Q9Y3Q0 whole entry): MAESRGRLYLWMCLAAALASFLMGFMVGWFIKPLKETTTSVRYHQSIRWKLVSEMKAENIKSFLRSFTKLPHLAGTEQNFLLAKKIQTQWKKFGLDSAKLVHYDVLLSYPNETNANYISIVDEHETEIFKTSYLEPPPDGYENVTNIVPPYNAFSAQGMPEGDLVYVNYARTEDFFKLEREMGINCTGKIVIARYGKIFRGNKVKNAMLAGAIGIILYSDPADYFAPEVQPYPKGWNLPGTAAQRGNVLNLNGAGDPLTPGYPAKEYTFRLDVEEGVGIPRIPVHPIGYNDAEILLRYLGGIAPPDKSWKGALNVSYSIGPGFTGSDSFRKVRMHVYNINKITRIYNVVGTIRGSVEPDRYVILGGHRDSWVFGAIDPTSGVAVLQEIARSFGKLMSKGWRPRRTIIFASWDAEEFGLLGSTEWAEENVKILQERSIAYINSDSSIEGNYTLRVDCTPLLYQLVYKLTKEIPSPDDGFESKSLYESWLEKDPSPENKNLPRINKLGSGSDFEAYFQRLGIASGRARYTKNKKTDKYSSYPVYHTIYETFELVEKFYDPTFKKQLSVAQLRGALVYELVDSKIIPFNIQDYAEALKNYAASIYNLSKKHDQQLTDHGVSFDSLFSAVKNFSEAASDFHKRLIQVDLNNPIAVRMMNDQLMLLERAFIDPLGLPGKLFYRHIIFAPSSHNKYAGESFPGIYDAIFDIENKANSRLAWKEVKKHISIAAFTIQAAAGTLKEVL

Albumin [14] = biological target: Albumin (Rattus norvegicus, UniProt P02770); experiment: Binding affinity to rat serum albumin by fluorescence polarization assay
Chain of Albumin (Rattus norvegicus, UniProt P02770) (P02770 whole entry): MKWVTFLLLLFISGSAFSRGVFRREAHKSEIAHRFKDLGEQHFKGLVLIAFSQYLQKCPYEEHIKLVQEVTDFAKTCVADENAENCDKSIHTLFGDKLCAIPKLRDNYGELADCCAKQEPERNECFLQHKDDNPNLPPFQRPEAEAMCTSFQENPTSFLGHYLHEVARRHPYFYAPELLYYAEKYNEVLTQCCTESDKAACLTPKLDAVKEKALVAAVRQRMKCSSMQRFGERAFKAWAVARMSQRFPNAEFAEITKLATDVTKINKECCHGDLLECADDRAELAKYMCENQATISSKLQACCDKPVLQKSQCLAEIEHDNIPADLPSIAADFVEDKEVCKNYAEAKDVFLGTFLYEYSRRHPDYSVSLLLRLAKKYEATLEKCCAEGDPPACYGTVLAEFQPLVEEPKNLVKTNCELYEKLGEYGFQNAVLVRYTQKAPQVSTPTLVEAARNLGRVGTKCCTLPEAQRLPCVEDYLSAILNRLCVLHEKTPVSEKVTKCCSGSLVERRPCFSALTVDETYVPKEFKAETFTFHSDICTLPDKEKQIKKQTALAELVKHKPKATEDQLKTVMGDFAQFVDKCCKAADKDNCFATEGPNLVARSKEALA

Albumin [15] = biological target: Albumin (Macaca fascicularis, UniProt A2V9Z4); experiment: Binding affinity to cynomolgus serum albumin by fluorescence polarization assay; conditions: cynomolgus monkey
Chain of Albumin (Macaca fascicularis, UniProt A2V9Z4) (A2V9Z4 whole entry): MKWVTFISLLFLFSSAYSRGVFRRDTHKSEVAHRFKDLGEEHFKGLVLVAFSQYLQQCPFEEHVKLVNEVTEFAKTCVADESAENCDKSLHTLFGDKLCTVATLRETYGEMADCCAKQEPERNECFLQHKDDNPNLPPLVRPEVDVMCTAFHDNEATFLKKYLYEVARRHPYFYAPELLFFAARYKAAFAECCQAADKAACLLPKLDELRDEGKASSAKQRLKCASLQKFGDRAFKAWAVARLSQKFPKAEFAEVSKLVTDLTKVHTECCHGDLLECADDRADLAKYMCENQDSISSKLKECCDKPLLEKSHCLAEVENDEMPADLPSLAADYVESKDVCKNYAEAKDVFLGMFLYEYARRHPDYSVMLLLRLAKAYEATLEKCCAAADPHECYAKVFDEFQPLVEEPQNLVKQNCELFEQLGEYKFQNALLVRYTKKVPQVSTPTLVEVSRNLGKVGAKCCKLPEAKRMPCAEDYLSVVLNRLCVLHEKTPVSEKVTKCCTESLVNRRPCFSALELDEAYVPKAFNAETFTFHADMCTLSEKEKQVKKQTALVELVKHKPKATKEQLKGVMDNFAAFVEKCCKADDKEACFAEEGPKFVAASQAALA

[16] = biological target: Carbonic anhydrase 2 (Homo sapiens) (UniProt P00918); experiment: Binding affinity to Carbonic anhydrase II (unknown origin) by fluorescence polarization assay

Kd [1]: > 0.002 µM | Ratio (Homo sapiens): 100 | Kd (Interleukin-15): > 5 µM | Kd [2]: > 7.5 µM | Kd (Prolyl endopeptidase FAP [3]): > 0.7 µM | Activity (Albumin [4]): Not Active | Kd [6]: > 9.5 µM | Kd (Albumin [7]): 4.5 µM | Activity [8]: 39% | Activity [9]: inactive | Activity [10]: inactive | Kd (Prolyl endopeptidase FAP [11]): > 1.5 µM | Activity (Albumin [12]): Not Active | Kd [13]: 0.014 µM | Activity (Albumin [14]): Not Active | Activity (Albumin [15]): Not Active | Activity [16]: inactive
Compound: O=C(N[C@@H]1C[C@@H](C(=O)N[C@@H](CCCCNC(=S)Nc2ccc3c(c2)C(=O)OC32c3ccc(O)cc3Oc3cc(O)ccc32)C(=O)O)N(C(=O)c2cnoc2C2CC2)C1)c1c[nH]nn1
Kd [5]: > 3.3 µM
